Measured values: PubChem BioAssay AID2060906 (Molecular Pharmacology Branch, DTP, NCI, 2025)
One block for each compound: values may come before it.

Tested on: 485176-168-R4-J1-PDC complex spheroid growth
Experiment: Anticancer human tumor 485176-168-R4-J1-PDC patient-derived pancreatic adenocarcinoma cell line growth inhibition [RAS]
Conditions: for IC50: curve of first compound; for viability, T/C: stronger effect = lower value
How it was run: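 Tumour cells grown as complex spheroids with HUVEC endothelial cells and mesenchymal stem cells, treated with RAS pathway inhibitor combinations. Each agent spans half-log steps from near clinical Cmax, or 10 microM where Cmax is unknown.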

[1] = second compound 0.000949 µM, first compound 0.000949 µM
[2] = second compound 0.000949 µM, first compound 0.003 µM
[3] = second compound 0.000949 µM, first compound 0.00949 µM
[4] = second compound 0.000949 µM, first compound 0.03 µM
[5] = second compound 0.000949 µM, first compound 0.0949 µM
[6] = second compound 0.000949 µM, first compound 0.3 µM
[7] = second compound 0.003 µM, first compound 0.000949 µM
[8] = second compound 0.003 µM, first compound 0.003 µM
[9] = second compound 0.003 µM, first compound 0.00949 µM
[10] = second compound 0.003 µM, first compound 0.03 µM
[11] = second compound 0.003 µM, first compound 0.0949 µM
[12] = second compound 0.003 µM, first compound 0.3 µM
[13] = second compound 0.00949 µM, first compound 0.000949 µM
[14] = second compound 0.00949 µM, first compound 0.003 µM
[15] = second compound 0.00949 µM, first compound 0.00949 µM
[16] = second compound 0.00949 µM, first compound 0.03 µM
[17] = second compound 0.00949 µM, first compound 0.0949 µM
[18] = second compound 0.00949 µM, first compound 0.3 µM
[19] = second compound 0.03 µM, first compound 0.000949 µM
[20] = second compound 0.03 µM, first compound 0.003 µM
[21] = second compound 0.03 µM, first compound 0.00949 µM
[22] = second compound 0.03 µM, first compound 0.03 µM
[23] = second compound 0.03 µM, first compound 0.0949 µM
[24] = second compound 0.03 µM, first compound 0.3 µM
[25] = second compound 0.0949 µM, first compound 0.000949 µM
[26] = second compound 0.0949 µM, first compound 0.003 µM
[27] = second compound 0.0949 µM, first compound 0.00949 µM
[28] = second compound 0.0949 µM, first compound 0.03 µM
[29] = second compound 0.0949 µM, first compound 0.0949 µM
[30] = second compound 0.0949 µM, first compound 0.3 µM
[31] = second compound 0.3 µM, first compound 0.000949 µM
[32] = second compound 0.3 µM, first compound 0.003 µM
[33] = second compound 0.3 µM, first compound 0.00949 µM
[34] = second compound 0.3 µM, first compound 0.03 µM
[35] = second compound 0.3 µM, first compound 0.0949 µM
[36] = second compound 0.3 µM, first compound 0.3 µM
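Further: spheroids exposed to compounds for seven days before readout.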
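Wherever viability, T/C is given: luminescence viability expressed relative to DMSO vehicle wells set as 100%.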

IC50 (second compound 0.000949 µM): > 1000 nM | IC50 (second compound 0.003 µM): > 1000 nM | IC50 (second compound 0.00949 µM): > 1000 nM | IC50 (second compound 0.03 µM): > 1000 nM | IC50 (second compound 0.0949 µM): > 1000 nM | IC50 (second compound 0.3 µM): > 1000 nM
Compound: C=CC(=O)N1CCN(c2nc(OCC3CCCN3C)nc3c(F)c(-c4nc(N)cc(C)c4C(F)(F)F)c(Cl)cc23)C(C)C1 (stereo unspecified) + CCn1c(-c2cccnc2C(C)OC)c2c3cc(ccc31)N1CCOC(CC(NC(=O)C(C(C)C)N(C)C(=O)C3(F)CCN(C(=O)C#CC(C)(C)N(C)C)CC3)C(=O)N3CCCC(N3)C(=O)OCC(C)(C)C2)C1
viability, T/C (second compound 0.000949 µM, first compound 0.00316 µM): 109% | viability, T/C (second compound 0.000949 µM, first compound 0.01 µM): 90.2% | viability, T/C (second compound 0.000949 µM, first compound 0.0316 µM): 108% | viability, T/C (second compound 0.000949 µM, first compound 0.1 µM): 88.8% | viability, T/C (second compound 0.000949 µM, first compound 0.316 µM): 113% | viability, T/C (second compound 0.000949 µM, first compound 1 µM): 89.4% | viability, T/C (second compound 0.003 µM, first compound 0.00316 µM): 94.2% | viability, T/C (second compound 0.003 µM, first compound 0.01 µM): 94.5% | viability, T/C (second compound 0.003 µM, first compound 0.0316 µM): 96.2% | viability, T/C (second compound 0.003 µM, first compound 0.1 µM): 93.4% | viability, T/C (second compound 0.003 µM, first compound 0.316 µM): 115% | viability, T/C (second compound 0.003 µM, first compound 1 µM): 105% | viability, T/C (second compound 0.00949 µM, first compound 0.00316 µM): 92.2% | viability, T/C (second compound 0.00949 µM, first compound 0.01 µM): 93.6% | viability, T/C (second compound 0.00949 µM, first compound 0.0316 µM): 96.9% | viability, T/C (second compound 0.00949 µM, first compound 0.1 µM): 94.4% | viability, T/C (second compound 0.00949 µM, first compound 0.316 µM): 105% | viability, T/C (second compound 0.00949 µM, first compound 1 µM): 108% | viability, T/C (second compound 0.03 µM, first compound 0.00316 µM): 98.5% | viability, T/C (second compound 0.03 µM, first compound 0.01 µM): 105% | viability, T/C (second compound 0.03 µM, first compound 0.0316 µM): 101% | viability, T/C (second compound 0.03 µM, first compound 0.1 µM): 111% | viability, T/C (second compound 0.03 µM, first compound 0.316 µM): 117% | viability, T/C (second compound 0.03 µM, first compound 1 µM): 85.8% | viability, T/C (second compound 0.0949 µM, first compound 0.00316 µM): 88.2% | viability, T/C (second compound 0.0949 µM, first compound 0.01 µM): 83.7% | viability, T/C (second compound 0.0949 µM, first compound 0.0316 µM): 101% | viability, T/C (second compound 0.0949 µM, first compound 0.1 µM): 95.1% | viability, T/C (second compound 0.0949 µM, first compound 0.316 µM): 115% | viability, T/C (second compound 0.0949 µM, first compound 1 µM): 92.2% | viability, T/C (second compound 0.3 µM, first compound 0.00316 µM): 74.2% | viability, T/C (second compound 0.3 µM, first compound 0.01 µM): 74.1% | viability, T/C (second compound 0.3 µM, first compound 0.0316 µM): 79.6% | viability, T/C (second compound 0.3 µM, first compound 0.1 µM): 82% | viability, T/C (second compound 0.3 µM, first compound 0.316 µM): 94.4% | viability, T/C (second compound 0.3 µM, first compound 1 µM): 80.8%

IC50 (second compound 0.000949 µM): > 300 nM | IC50 (second compound 0.003 µM): > 300 nM | IC50 (second compound 0.00949 µM): 66.8 nM | IC50 (second compound 0.03 µM): 26.5 nM | IC50 (second compound 0.0949 µM): 20.8 nM | IC50 (second compound 0.3 µM): 13.2 nM
Compound: CC1(C)CCC(Nc2ncc(C(F)(F)F)c(-c3c[nH]c4c(P(C)(C)=O)c(C#N)ccc34)n2)CN1 (stereo unspecified) + CCn1c(-c2cccnc2C(C)OC)c2c3cc(ccc31)N1CCOC(CC(NC(=O)C(C(C)C)N(C)C(=O)C3(F)CCN(C(=O)C#CC(C)(C)N(C)C)CC3)C(=O)N3CCCC(N3)C(=O)OCC(C)(C)C2)C1
viability, T/C [1]: 91.9% | viability, T/C [2]: 93.3% | viability, T/C [3]: 86.8% | viability, T/C [4]: 59.5% | viability, T/C [5]: 52.8% | viability, T/C [6]: 54.1% | viability, T/C [7]: 99.1% | viability, T/C [8]: 90.7% | viability, T/C [9]: 87.5% | viability, T/C [10]: 58.3% | viability, T/C [11]: 54.5% | viability, T/C [12]: 51.7% | viability, T/C [13]: 97.6% | viability, T/C [14]: 91% | viability, T/C [15]: 82.2% | viability, T/C [16]: 54.1% | viability, T/C [17]: 50.5% | viability, T/C [18]: 44.9% | viability, T/C [19]: 89.4% | viability, T/C [20]: 112% | viability, T/C [21]: 73.5% | viability, T/C [22]: 54.5% | viability, T/C [23]: 39% | viability, T/C [24]: 47.9% | viability, T/C [25]: 77.9% | viability, T/C [26]: 87.1% | viability, T/C [27]: 67.7% | viability, T/C [28]: 42.2% | viability, T/C [29]: 34.6% | viability, T/C [30]: 34.1% | viability, T/C [31]: 81.9% | viability, T/C [32]: 69.1% | viability, T/C [33]: 58.7% | viability, T/C [34]: 34% | viability, T/C [35]: 26.8% | viability, T/C [36]: 30.5%

IC50 (second compound 0.000949 µM): 12.7 nM | IC50 (second compound 0.003 µM): 8.73 nM | IC50 (second compound 0.00949 µM): 15 nM | IC50 (second compound 0.03 µM): 12.5 nM | IC50 (second compound 0.0949 µM): 6.74 nM | IC50 (second compound 0.3 µM): 7.31 nM
Compound: CCc1c2c(nc3ccc(O)cc13)-c1cc3c(c(=O)n1C2)COC(=O)[C@]3(O)CC + CCn1c(-c2cccnc2C(C)OC)c2c3cc(ccc31)N1CCOC(CC(NC(=O)C(C(C)C)N(C)C(=O)C3(F)CCN(C(=O)C#CC(C)(C)N(C)C)CC3)C(=O)N3CCCC(N3)C(=O)OCC(C)(C)C2)C1
viability, T/C [1]: 89% | viability, T/C [2]: 84.4% | viability, T/C [3]: 56% | viability, T/C [4]: 27.5% | viability, T/C [5]: 12.2% | viability, T/C [6]: 5.05% | viability, T/C [7]: 92.2% | viability, T/C [8]: 84.3% | viability, T/C [9]: 43% | viability, T/C [10]: 25.8% | viability, T/C [11]: 10.7% | viability, T/C [12]: 7.84% | viability, T/C [13]: 89.5% | viability, T/C [14]: 96.3% | viability, T/C [15]: 63.1% | viability, T/C [16]: 27.6% | viability, T/C [17]: 10.5% | viability, T/C [18]: 7.04% | viability, T/C [19]: 96.3% | viability, T/C [20]: 94.1% | viability, T/C [21]: 52.5% | viability, T/C [22]: 29.2% | viability, T/C [23]: 10.9% | viability, T/C [24]: 4.84% | viability, T/C [25]: 91.5% | viability, T/C [26]: 67.8% | viability, T/C [27]: 43.4% | viability, T/C [28]: 19.7% | viability, T/C [29]: 5.98% | viability, T/C [30]: 3.35% | viability, T/C [31]: 68.7% | viability, T/C [32]: 64.1% | viability, T/C [33]: 45.9% | viability, T/C [34]: 10.6% | viability, T/C [35]: 4.63% | viability, T/C [36]: 2.53%
